Source: patent US5583142A, “Analgesic and nootropic drugs” (priority 1992, dated 1996)
“And” between values parts separate entries of the source, which are not always exact repeats. Identical values can stand only once. Counter-ions that a name gives are not always drawn. Like-named read-outs stand apart in the source and are kept apart here.

What was measured:
[1] = mouse acetic acid writhing test; type: in vivo; conditions: for efficacy in writhing test, in words / number of writhes / Efficacy as analgesic (Morphine = 100) / percent inhibition: mouse; for Efficacy as analgesic (Morphine = 100) / percent inhibition: writhing; for ED50: sc, mouse writhing
Procedure: (§1) The analgesic action was detected in mouse, rat, guinea pig and dog. The mouse was subjected to hot plate and writhing tests; the rat to tail-flick and paw-pressure tests; the guinea pig to paw-pressure test only; the dog to the test described by Vainio et al. [J. Vet. Pharmacol. Ther., 12, 225-231 (1989)] using an electric stimulation. Consequently, the claimed compounds were tested with pain being induced by stimuli of different nature: thermal (hot plate and tail flick), chemical (writhing by acetic acid), mechanical (paw pressure) and electrical (cutaneous stimulation).
The claimed molecules, chosen as examples, were also assayed in mice by the writhing test (Table 4). The test is meant to evaluate the products capability to prevent mice writhes ensuing abdominal pains caused by i.p. injection of a 0.6% aqueous solution of acetic acid.
Acetic acid solution = 0.6% v/v.

[2] = mouse rota-rod test (16 r.p.m.)
Text: All products tested to detect their antinociceptive activity had been previously tested by the rota-rod test to determine their maximum utilizable dose in analgesic tests. In fact, by this test it is possible to determine the highest dose of drug not impairing the normal performance of animals in a test that simultaneously evaluates motor coordination, equilibrium, resistance to fatigue, and muscle strength. This test is meant to evaluate the capability of mice to stay balanced on a rotating rod [cf. Vaught et al., Neuropharmacology, 24 (3) 211-216 (1985)].
The calculated doses were those used in the two analgesic tests on mice.

in vivo = conditions: mouse
Text: (§2) Potency, efficacy and toxicity of SM21, PG9 and SM32 in comparison with
(§3) four principal reference analgesic drugs tested in mouse. As analgesic

rat paw-pressure test = type: in vivo
Procedure: as §1
(§4) As already mentioned, the claimed products were assayed also in rat by the paw-pressure and tail-flick tests.
(§5) Both tests were carried out with the max. doses not impairing the rats normal behaviour. […] The painful stimulus utilized in the paw-pressure test involved the animal consciousness to a much greater extent than the stimulus used in the tail-flick test, in fact, the type and anatomic localization of the latter mainly involved a spinal response.
(§6) Both tests on rats were carried out with the max. doses not altering the behaviour of the treated animals.

rat tail-flick test = type: in vivo
Procedure: as §1, §4, §5, §6
The test was performed using th

[3] = type: in vivo, mouse; conditions: for Efficacy as analgesic (Morphine = 100), AUC (Area Under Curve) / Efficacy as analgesic (Morphine = 100), M.E. (Maximum Analgesic Effect): in vivo
Procedure: as §1, §2, §3

[4] = guinea-pig paw-pressure test; type: in vivo; conditions: for paw-pressure: guinea-pig, 20 mg/kg i.p.
Procedure: as §1
Effect of SM21 and PG9 in guineapig pawpressure test. *P < 0.01; P < 0.0
in comparison with saline controls. The number of guineapig is in […]

[5] = 45 mg/kg s.c., 15 min after treatment
[6] = 45 mg/kg s.c., 30 min after treatment
[7] = 45 mg/kg s.c., 45 min after treatment
[8] = 50 mg/kg s.c., 15 min after treatment
[9] = 50 mg/kg s.c., 30 min after treatment
[10] = 50 mg/kg s.c., 45 min after treatment
[11] = 25 mg/kg i.p., 15 min after treatment
[12] = 25 mg/kg i.p., 30 min after treatment
[13] = 25 mg/kg i.p., 45 min after treatment
[14] = 20 mg/kg i.p., 15 min after treatment
[15] = 20 mg/kg i.p., 30 min after treatment
[16] = 20 mg/kg i.p., 45 min after treatment

Compound: CN(C)CCCN1c2ccccc2CCc2ccc(Cl)cc21 [Clomipramine HCl, reference compound]
- efficacy in writhing test, in words [1]: far less efficacious
- number of writhes ([1]; 20 mg/kg s.c.): 18.2 ± 2.1
- Efficacy as analgesic (Morphine = 100) ([1]; 20 mg/kg s.c.): 63
- percent inhibition ([1]; 20 mg/kg s.c.): 46.8%
- ED50 [1]: 9.7 mg/kg and 27.6 µmol/kg
- rota-rod performance (number of falls in 30 s) ([2]; 25 mg/kg s.c., 15 min after treatment): 2.4 ± 0.5 falls in 30 s
- rota-rod performance (number of falls in 30 s) ([2]; 25 mg/kg s.c., 30 min after treatment): 2.1 ± 0.6 falls in 30 s
- rota-rod performance (number of falls in 30 s) ([2]; 25 mg/kg s.c., 45 min after treatment): 2.1 ± 0.6 falls in 30 s
- rota-rod performance (number of falls in 30 s) [2, 5]: 2.8 ± 0.4 falls in 30 s
- rota-rod performance (number of falls in 30 s) [2, 6]: 3.6 ± 0.4 falls in 30 s
- rota-rod performance (number of falls in 30 s) [2, 7]: 3.5 ± 0.6 falls in 30 s
- rota-rod performance (number of falls in 30 s) [2, 8]: 1.8 ± 0.4 falls in 30 s
- rota-rod performance (number of falls in 30 s) [2, 9]: 1.8 ± 0.4 falls in 30 s
- rota-rod performance (number of falls in 30 s) [2, 10]: 1.5 ± 0.4 falls in 30 s
- rota-rod performance (number of falls in 30 s) ([2]; 60 mg/kg s.c., 15 min after treatment): 1.5 ± 0.4 falls in 30 s
- rota-rod performance (number of falls in 30 s) ([2]; 60 mg/kg s.c., 30 min after treatment): 2.6 ± 0.3 falls in 30 s
- rota-rod performance (number of falls in 30 s) ([2]; 60 mg/kg s.c., 45 min after treatment): 3.1 ± 0.5 falls in 30 s
- NOAEL ([2]; mouse, in vivo, sc): 20.2 mg/kg
- LD50 (in vivo; iv): 44 mg/kg and 125 µmol/kg
- activity in paw-pressure test, in words (rat paw-pressure test): almost equivalent analgesia
- paw-pressure (rat paw-pressure test; [11]): 85.0 ± 6.8 g
- paw-pressure (rat paw-pressure test; [12]): 99.0 ± 6.6 g
- paw-pressure (rat paw-pressure test; [13]): 91.7 ± 7.4 g
- activity in tail-flick test, in words (rat tail-flick test): inactive
- tail-flick (rat tail-flick test; [11]): 2.9 ± 0.2 s
- tail-flick (rat tail-flick test; [12]): 2.6 ± 0.1 s
- tail-flick (rat tail-flick test; [13]): 2.6 ± 0.2 s
- ED50 compared with claimed compounds ([3]; mouse hot plate): equivalent to those of the claimed compounds
- analgesic efficacy / degree of analgesia compared with claimed compounds ([3]; mouse hot plate): much lower degree of analgesia
- Efficacy as analgesic (Morphine = 100), AUC (Area Under Curve) ([3]; mouse): 17
- Efficacy as analgesic (Morphine = 100), M.E. (Maximum Analgesic Effect) ([3]; mouse): 19
- hot-plate latency ([3]; mouse, 20 mg/kg i.p., 15 min after treatment): 24.8 ± 2.8 s
- hot-plate latency ([3]; mouse, 20 mg/kg i.p., 30 min after treatment): 25.2 ± 2.2 s
- hot-plate latency ([3]; mouse, 20 mg/kg i.p., 45 min after treatment): 23.2 ± 2.1 s
- hot-plate latency ([3]; mouse, 20 mg/kg s.c., 15 min after treatment): 17.4 ± 1.1 s
- hot-plate latency ([3]; mouse, 20 mg/kg s.c., 30 min after treatment): 19.3 ± 0.9 s
- hot-plate latency ([3]; mouse, 20 mg/kg s.c., 45 min after treatment): 16.5 ± 0.8 s

Compound: CC(C(=O)O[C@H]1C[C@H]2CC[C@@H](C1)N2C)c1ccc(Br)cc1 (stereo partly drawn) [PG-9, 3α-Tropanyl 2-(p-bromophenyl)-propionate]
- efficacy in writhing test, in words [1]: less efficacious than ketorolac, are more efficacious than morphine
- number of writhes ([1]; 40 mg/kg s.c.): 6.1 ± 1.6
- Efficacy as analgesic (Morphine = 100) ([1]; 40 mg/kg s.c.): 110
- percent inhibition ([1]; 40 mg/kg s.c.): 82.2%
- ED50 [1]: 16.3 mg/kg and 34.8 µmol/kg
- rota-rod performance (number of falls in 30 s) ([2]; 40 mg/kg s.c., 15 min after treatment): 1.2 ± 0.5 falls in 30 s
- rota-rod performance (number of falls in 30 s) ([2]; 40 mg/kg s.c., 30 min after treatment): 0.8 ± 0.4 falls in 30 s
- rota-rod performance (number of falls in 30 s) ([2]; 40 mg/kg s.c., 45 min after treatment): 1.3 ± 0.5 falls in 30 s
- rota-rod performance (number of falls in 30 s) [2, 5]: 2.4 ± 0.8 falls in 30 s
- rota-rod performance (number of falls in 30 s) [2, 6]: 1.3 ± 0.5 falls in 30 s
- rota-rod performance (number of falls in 30 s) [2, 7]: 0.8 ± 0.4 falls in 30 s
- rota-rod performance (number of falls in 30 s) [2, 8]: 2.2 ± 0.6 falls in 30 s
- rota-rod performance (number of falls in 30 s) [2, 9]: 2.7 ± 0.6 falls in 30 s
- rota-rod performance (number of falls in 30 s) [2, 10]: 2.8 ± 0.4 falls in 30 s
- LD50 (in vivo; sc): 373 µmol/kg
- activity in paw-pressure test, in words (rat paw-pressure test): inactive in rat
- paw-pressure (rat paw-pressure test; [14]): 62.2 ± 6.0 g
- paw-pressure (rat paw-pressure test; [15]): 62.4 ± 4.8 g
- paw-pressure (rat paw-pressure test; [16]): 62.8 ± 4.2 g
- analgesic activity in guinea pig, in words ([4]; guinea pig): active in guinea pig
- paw-pressure ([4]; 15 min after treatment): 94.6 ± 4.4 g
- paw-pressure ([4]; 30 min after treatment): 83.0 ± 6.8 g
- paw-pressure ([4]; 45 min after treatment): 42.8 ± 5.6 g
- activity in tail-flick test, in words (rat tail-flick test): inactive
- tail-flick (rat tail-flick test; [14]): 3.3 ± 0.2 s
- tail-flick (rat tail-flick test; [15]): 2.9 ± 0.4 s
- tail-flick (rat tail-flick test; [16]): 3.0 ± 0.3 s
- ANALGESIC ACTIVITY (degree of analgesia, latency on hot plate) ([3]; max. dose not affecting mice behaviour): ++++ (Latency above 35" ++++-)
- analgesic activity in mouse, in words ([3]; mouse): active in mouse
- analgesic effect (AUC up to 45 min) compared with reference analgesics ([3]; mouse hot plate, FIG. 5, always (s.c. and i.p.)): always more active than all reference analgesics including morphine
- Efficacy as analgesic (Morphine = 100), AUC (Area Under Curve) ([3]; mouse): 123
- Efficacy as analgesic (Morphine = 100), M.E. (Maximum Analgesic Effect) ([3]; mouse): 106
- hot-plate latency ([3]; mouse, 40 mg/kg i.p., 15 min after treatment): 42.5 ± 2.5 s
- hot-plate latency ([3]; mouse, 40 mg/kg i.p., 30 min after treatment): 39.7 ± 2.1 s
- hot-plate latency ([3]; mouse, 40 mg/kg i.p., 45 min after treatment): 26.7 ± 3.5 s
- hot-plate latency ([3]; mouse, 40 mg/kg s.c., 15 min after treatment): 39.3 ± 3.4 s
- hot-plate latency ([3]; mouse, 40 mg/kg s.c., 30 min after treatment): 35.1 ± 2.8 s
- hot-plate latency ([3]; mouse, 40 mg/kg s.c., 45 min after treatment): 33.3 ± 2.6 s
